Source: ChEMBL document CHEMBL4627340, “Design, synthesis, and biological activity of new endomorphin analogs with multi-site modifications” (Bioorg Med Chem, 2020)
Calls of active or inactive are those of the source. No cut-off for these calls is given here.

How the values were obtained:
Mus musculus [1] = assay: Antinociceptive activity in kunming mouse models assessed as effective dose after icv administration measured from 5 to 60 mins by warm water tail-flick assay; type: functional
[2] = target: Delta-type opioid receptor (Rattus norvegicus, UniProt P33533); assay: Displacement of [3H]-DPDPE from Wistar rat delta opioid receptor incubated for 3 hrs by liquid scintillation counting method
Mus musculus [3] = assay: Antinociceptive activity in icv administered kunming mouse models of formalin-induced hyperalgesia assessed reduction in time spent on paw biting during inflammatory phase 2 at 15 to 30 mins; type: functional; set-up: scale not given: the % may be the effect or the level left
Mu-type opioid receptor [4] = target: T1, Mu-type opioid receptor (Homo sapiens, UniProt P35372); assay: Agonist activity at mu opioid receptor (unknown origin) expressed in human HEK293 cells assessed as […] in cAMP accumulation using [3H]-cAMP as substrate measured after 30mins by liquid scintillation counting method relative to control; type: functional, cell-based
Mus musculus [5] = assay: Antinociceptive activity in icv administered kunming mouse models of formalin-induced hyperalgesia assessed reduction in pain response of paw licking during inflammatory phase 2 at 15 to 30 mins; type: functional, organism-based
Mus musculus [6] = assay: Antinociceptive activity in kunming mouse models assessed as maximum possible effect at 0.4 nmol, icv measured from 5 to 60 mins by warm water tail-flick assay relative to control; type: functional
Mus musculus [7] = assay: Antinociceptive activity in kunming mouse models of formalin-induced hyperalgesia assessed as reduction in time spent on paw shaking inflammatory phase at 4 nmol, icv measured during phase 2 at 15 to 30 mins relative to control; type: functional; set-up: scale not given: the % may be the effect or the level left
Mu-type opioid receptor [8] = target: T1, Mu-type opioid receptor; assay: Agonist activity at mu opioid receptor (unknown origin) expressed in human HEK293 cells assessed as […] in cAMP accumulation using [3H]-cAMP as substrate measured after 30mins by liquid scintillation counting method; type: functional, cell-based
Mu-type opioid receptor [9] = target: Mu-type opioid receptor (Rattus norvegicus, UniProt P33535); assay: Displacement of [3H]-DAMGO from Wistar rat mu opioid receptor incubated for 1 hr by liquid scintillation counting method
Mus musculus [10] = assay: Antinociceptive activity in kunming mouse models of formalin-induced hyperalgesia assessed as reduction in pain response of paw licking inflammatory phase at 0.04 nmol, icv measured during phase 1 at 0 to 5 mins relative to control; type: functional; set-up: scale not given: the % may be the effect or the level left
Mus musculus [11] = assay: Antinociceptive activity in kunming mouse models of formalin-induced hyperalgesia assessed as reduction in time spent on paw biting inflammatory phase at 4 nmol, icv measured during phase 1 at 0 to 5 mins relative to control; type: functional; set-up: scale not given: the % may be the effect or the level left
Mus musculus [12] = assay: Antinociceptive activity in kunming mouse models of formalin-induced hyperalgesia assessed as reduction in time spent on paw biting inflammatory phase at 4 nmol, icv measured during phase 2 at 15 to 30 mins relative to control; type: functional; set-up: scale not given: the % may be the effect or the level left
Mus musculus [13] = assay: Antinociceptive activity in kunming mouse models of formalin-induced hyperalgesia assessed as reduction in time spent on paw biting inflammatory phase at 0.04 nmol, icv measured during phase 1 at 0 to 5 mins relative to control; type: functional; set-up: scale not given: the % may be the effect or the level left
Mus musculus [14] = assay: Antinociceptive activity in kunming mouse models of formalin-induced hyperalgesia assessed as reduction in time spent on paw shaking inflammatory phase at 0.04 nmol, icv measured during phase 1 at 0 to 5 mins relative to control; type: functional; set-up: scale not given: the % may be the effect or the level left
Mus musculus [15] = assay: Antinociceptive activity in kunming mouse models of formalin-induced hyperalgesia assessed as reduction in time spent on paw shaking inflammatory phase at 4 nmol, icv measured during phase 1 at 0 to 5 mins relative to control; type: functional; set-up: scale not given: the % may be the effect or the level left
Mus musculus [16] = assay: Antinociceptive activity in kunming mouse models of formalin-induced hyperalgesia assessed as reduction in pain response of paw licking inflammatory phase at 4 nmol, icv measured during phase 2 at 15 to 30 mins relative to control; type: functional; set-up: scale not given: the % may be the effect or the level left
Mus musculus [17] = assay: Antinociceptive activity in icv administered kunming mouse models of formalin-induced hyperalgesia assessed reduction in time spent on paw shaking during inflammatory phase 2 at 15 to 30 mins; type: functional; set-up: scale not given: the % may be the effect or the level left
Mus musculus [18] = assay: Antinociceptive activity in kunming mouse models of formalin-induced hyperalgesia assessed as reduction in pain response of paw licking inflammatory phase at 4 nmol, icv measured during phase 1 at 0 to 5 mins relative to control; type: functional; set-up: scale not given: the % may be the effect or the level left
[19] = Half life in Kunming mouse brain homogenate at 10^-2 mol/L by RP-HPLC analysis; type: ADME, tissue-based
[20] = Half life in Kunming mouse serum at 10^-2 mol/L by RP-HPLC analysis; type: ADME, cell-free
Mus musculus [21] = assay: Antinociceptive activity in kunming mouse models of acetic-acid-induced writhing assessed as inhibition of writhing numbers at 0.04 nmol, icv pretreated for 5 mins followed by acetic-acid treatment and measured for 20 mins relative to control; type: functional; set-up: scale not given: the % may be the effect or the level left
Mus musculus [22] = assay: Antinociceptive activity in kunming mouse models assessed as maximum possible effect at 4 nmol, icv measured from 5 to 60 mins by warm water tail-flick assay relative to control; type: functional
[23] = Toxicity in kunming mouse assessed as reduction in number of fecal pellet at 1 to 10 mg/kg, iv after 1 hr; type: organism-based; settings: in vivo
Mus musculus [24] = assay: Antinociceptive activity in kunming mouse models assessed as effective dose after iv administration by warm water tail-flick assay; type: functional
[25] = Toxicity in kunming mouse assessed as reduction in fecal dry weight at 1 to 10 mg/kg, iv after 1 hr; type: organism-based; settings: in vivo
Mus musculus [26] = assay: Antinociceptive activity in kunming mouse models assessed as maximum possible effect at 10 mg/kg, iv measured after 5 to 60 mins co-treated with naloxone by warm water tail-flick assay; type: functional, organism-based
Mus musculus [27] = assay: Antinociceptive activity in kunming mouse models assessed as maximum possible effect at 3 mg/kg, iv measured after 5 to 60 mins by warm water tail-flick assay; type: functional
[28] = Neurotoxicity in kunming mouse models assessed as effect in locomotor activity at 10 mg/kg,iv measured up to 60 mins by rotarod test; type: toxicity, organism-based; settings: in vivo, 1 h
Mus musculus [29] = assay: Antinociceptive activity in iv dosed kunming mouse models of formalin-induced hyperalgesia assessed as reduction in pain response of paw licking measured up to 60 mins; type: functional, organism-based
Mus musculus [30] = assay: Antinociceptive activity in kunming mouse models of acetic-acid-induced writhing assessed as inhibition of writhing numbers at 3 mg/kg, iv pretreated for 5 mins followed by acetic-acid treatment and measured for 20 mins; type: functional, organism-based

T1 sequence (P35372 whole entry): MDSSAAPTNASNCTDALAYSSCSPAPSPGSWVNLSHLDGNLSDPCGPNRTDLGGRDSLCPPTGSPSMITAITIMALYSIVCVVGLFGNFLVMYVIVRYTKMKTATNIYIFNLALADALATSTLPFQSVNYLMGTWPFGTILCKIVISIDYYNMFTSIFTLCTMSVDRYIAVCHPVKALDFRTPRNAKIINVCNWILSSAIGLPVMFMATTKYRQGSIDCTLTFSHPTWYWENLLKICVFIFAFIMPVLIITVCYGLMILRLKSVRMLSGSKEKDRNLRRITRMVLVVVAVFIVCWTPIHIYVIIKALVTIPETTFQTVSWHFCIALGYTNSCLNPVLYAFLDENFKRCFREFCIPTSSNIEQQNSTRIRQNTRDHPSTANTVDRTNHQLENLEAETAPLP
Delta-type opioid receptor, sequence (P33533 whole entry): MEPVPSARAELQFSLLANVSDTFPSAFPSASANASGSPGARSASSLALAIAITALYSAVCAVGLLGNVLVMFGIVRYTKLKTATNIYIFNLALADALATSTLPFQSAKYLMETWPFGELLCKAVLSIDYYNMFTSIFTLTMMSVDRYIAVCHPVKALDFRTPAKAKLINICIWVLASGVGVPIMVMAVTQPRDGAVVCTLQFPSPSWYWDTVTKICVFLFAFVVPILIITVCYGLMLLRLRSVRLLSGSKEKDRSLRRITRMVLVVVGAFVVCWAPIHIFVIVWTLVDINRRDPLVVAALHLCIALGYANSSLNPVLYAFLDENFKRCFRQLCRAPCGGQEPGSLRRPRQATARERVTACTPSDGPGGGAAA
Mu-type opioid receptor (Rattus norvegicus, UniProt P33535), sequence (P33535 whole entry): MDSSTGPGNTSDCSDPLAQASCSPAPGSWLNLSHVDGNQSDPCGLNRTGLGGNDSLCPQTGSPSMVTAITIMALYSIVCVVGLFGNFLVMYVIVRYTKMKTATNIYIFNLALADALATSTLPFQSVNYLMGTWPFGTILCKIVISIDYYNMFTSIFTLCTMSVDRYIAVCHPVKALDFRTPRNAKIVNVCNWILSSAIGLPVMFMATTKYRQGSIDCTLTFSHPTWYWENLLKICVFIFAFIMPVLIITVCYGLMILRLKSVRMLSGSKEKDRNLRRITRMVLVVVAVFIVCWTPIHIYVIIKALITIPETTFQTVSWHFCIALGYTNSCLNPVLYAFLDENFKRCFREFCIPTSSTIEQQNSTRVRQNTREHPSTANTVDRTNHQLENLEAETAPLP

C=C(C(N)=O)[C@@H](NC(=O)[C@H](Cc1c[nH]c2ccccc12)NC(=O)[C@@H](CCCNC(=N)N)NC(=O)[C@@H](N)Cc1ccc(O)cc1)c1ccco1
ED50 (Mus musculus [1]): 0.025 nmol
Ki [2]: 955 nM
Activity (Mus musculus [3]): 100%
Emax (Mu-type opioid receptor [4]): 62.7%
Activity (Mus musculus [5]): Dose-dependent effect
MPE (Mus musculus [6]): 94.7%
Activity (Mus musculus [7]): 100%
EC50 (Mu-type opioid receptor [8]): 221 nM
Ki (Mu-type opioid receptor [9]): 4.9 nM
Activity (Mus musculus [10]): 100%
Activity (Mus musculus [11]): 100%
Activity (Mus musculus [12]): 100%
Activity (Mus musculus [13]): 100%
Activity (Mus musculus [14]): 100%
Activity (Mus musculus [15]): 100%
Activity (Mus musculus [16]): 100%
Activity (Mus musculus [17]): 100%
Activity (Mus musculus [18]): 100%
half-life [19]: > 5 h
half-life [20]: > 5 h
Activity (Mus musculus [21]): 100%
Activity (Mus musculus [22]): 100%

C=C(C(N)=O)[C@@H](NC(=O)[C@H](Cc1ccccc1)NC(=O)[C@@H](CN)NC(=O)[C@@H](N)Cc1ccc(O)cc1)c1ccco1
Ki [2]: > 10000 nM
Emax (Mu-type opioid receptor [4]): 62.3%
EC50 (Mu-type opioid receptor [8]): 1500 nM
Ki (Mu-type opioid receptor [9]): 53 nM

C=C(C(N)=O)[C@@H](NC(=O)[C@H](Cc1ccccc1)NC(=O)[C@@H](CCCNC(N)=O)NC(=O)[C@@H](N)Cc1ccc(O)cc1)c1ccco1
Activity [23]: Toxic
ED50 (Mus musculus [1]): 0.043 nmol
Ki [2]: > 10000 nM
Activity (Mus musculus [3]): 100%
Emax (Mu-type opioid receptor [4]): 76.7%
Activity (Mus musculus [5]): Dose-dependent effect
MPE (Mus musculus [6]): 84%
ED50 (Mus musculus [24]): 3.84 nmol
Activity (Mus musculus [7]): 100%
Activity [25]: Toxic
EC50 (Mu-type opioid receptor [8]): 128 nM
Ki (Mu-type opioid receptor [9]): 8.72 nM
Activity (Mus musculus [10]): 100%
Activity (Mus musculus [11]): 100%
Activity (Mus musculus [12]): 100%
Activity (Mus musculus [26]): inactive
MPE (Mus musculus [27]): 34.8%
Activity (Mus musculus [13]): 100%
Activity (Mus musculus [14]): 100%
Activity (Mus musculus [15]): 100%
Activity (Mus musculus [16]): 100%
Activity [28]: Non-Toxic
Activity (Mus musculus [29]): Dose-dependent effect
Activity (Mus musculus [17]): 100%
Activity (Mus musculus [18]): 100%
half-life [19]: > 5 h
Activity (Mus musculus [30]): Active
half-life [20]: > 5 h
Activity (Mus musculus [21]): 100%
Activity (Mus musculus [22]): 100%

CN1CC[C@]23c4c5ccc(O)c4O[C@H]2[C@@H](O)C=C[C@H]3[C@H]1C5 [MORPHINE]
MPE (Mus musculus [27]): 53.6%

NC(=O)[C@H](Cc1ccccc1)NC(=O)[C@H](Cc1ccccc1)NC(=O)[C@@H]1CCCN1C(=O)[C@@H](N)Cc1ccc(O)cc1 [ENDOMORPHIN 2]
ED50 (Mus musculus [1]): 0.96 nmol
Emax (Mu-type opioid receptor [4]): 66.5%
half-life [19]: 0.207 h
half-life [20]: 0.212 h
Activity (Mus musculus [22]): 100%

C=C(C(N)=O)[C@@H](NC(=O)[C@H](Cc1c[nH]c2ccccc12)NC(=O)[C@@H](CCCN)NC(=O)[C@@H](N)Cc1ccc(O)cc1)c1ccco1
Ki [2]: 320 nM
Emax (Mu-type opioid receptor [4]): 65.6%
EC50 (Mu-type opioid receptor [8]): 89.3 nM
Ki (Mu-type opioid receptor [9]): 437 nM

NC(=O)[C@H](Cc1ccccc1)NC(=O)[C@H](Cc1c[nH]c2ccccc12)NC(=O)[C@@H]1CCCN1C(=O)[C@@H](N)Cc1ccc(O)cc1 [ENDOMORPHIN-1]
MPE (Mus musculus [6]): 42.1%
Activity (Mus musculus [22]): 100%

C=C(C(N)=O)[C@@H](NC(=O)[C@H](Cc1c[nH]c2ccccc12)NC(=O)[C@@H](CNC(C)=O)NC(=O)[C@@H](N)Cc1ccc(O)cc1)c1ccco1
Ki [2]: > 10000 nM
Emax (Mu-type opioid receptor [4]): 73.2%
EC50 (Mu-type opioid receptor [8]): 272 nM
Ki (Mu-type opioid receptor [9]): 4.54 nM
